# PubChem BioAssay (NCI)
#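 Protocol summary: plate cells (96-well), add compound at 5 concentrations, incubate 48 h, interpolate endpoints linearly. Here, GI50 denotes the concentration required for 50% inhibition of growth. The concentration for full growth arrest is given as TGI.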
# Legend:
# Assay in all cases: DTP human tumour cell line panel, 48 h
# LOX IMVI melanoma = test system: LOX IMVI melanoma
# OVCAR-8 ovarian = test system: OVCAR-8 ovarian
# SW-620 colon = test system: SW-620 colon
# NCI-H23 lung = test system: NCI-H23 lung
# RPMI-8226 leukemia = test system: RPMI-8226 leukemia
# SF-268 CNS = test system: SF-268 CNS
# T-47D breast = test system: T-47D breast
# RXF 393 renal = test system: RXF 393 renal
# NCI-H226 lung = test system: NCI-H226 lung
# SR leukemia = test system: SR leukemia
Structure (SMILES),GI50 (LOX IMVI melanoma) [µM],TGI (LOX IMVI melanoma) [µM],GI50 (OVCAR-8 ovarian) [µM],TGI (OVCAR-8 ovarian) [µM],GI50 (SW-620 colon) [µM],TGI (SW-620 colon) [µM],GI50 (NCI-H23 lung) [µM],TGI (NCI-H23 lung) [µM],GI50 (RPMI-8226 leukemia) [µM],TGI (RPMI-8226 leukemia) [µM],GI50 (SF-268 CNS) [µM],TGI (SF-268 CNS) [µM],GI50 (T-47D breast) [µM],TGI (T-47D breast) [µM],GI50 (RXF 393 renal) [µM],TGI (RXF 393 renal) [µM],TGI (NCI-H226 lung) [µM],TGI (SR leukemia) [µM],GI50 (NCI-H226 lung) [µM],GI50 (SR leukemia) [µM]
Cc1cn2c(=O)n(c1=O)Cc1ccccc1C2,32,> 100,46.6,> 100,> 100,> 100,> 100,> 100,28.3,> 100,38.6,> 100,0.182,10.8,19.5,> 100,,,,
CC1(C)N[P+]2(Nc3ccccc3O2)OC1=O (stereo unspecified),,> 100,,> 100,,> 100,,> 100,,> 100,,> 100,,> 100,,> 100,> 100,,,
CNC(=O)OCc1[nH]ccc2c(C)c3nc4ccc(OC)cc4c3cc12,,,,> 24.9,,> 26.9,,> 22.2,,10.6,,> 100,,,,8.72,18.7,1.98,,
CC(=O)O[C@H]1CC[C@@]2(C)C(=CC[C@@H]3C2CC[C@]2(C)Nc4[nH]ncc4CC32)C1 (stereo partly specified),,,,> 100,,> 100,,> 100,,65.9,,,,,,> 100,> 100,,,
O=C(O)c1ccc(C2C3C=CC(C3)C2[N+](=O)[O-])cc1 (stereo unspecified),,> 100,,> 100,,> 100,,> 100,,> 100,,> 100,,,,> 100,> 100,,,
NC1=C(Cl)C(=O)c2ccccc2C1=O,,7.91,,27.8,,14.6,,6.32,,43.6,,33.2,,,,18.8,18.3,32.9,,
COc1ccccc1NC(=O)C1=C(C)NC(C)=C(C(=O)Nc2ccccc2OC)C1c1cccc2c1OCO2,,> 100,,> 100,,> 100,,> 100,,> 100,,> 100,,,,,> 100,> 100,,
Cn1c(=O)oc2cc(C3CCC(=O)N3Cc3ccc(Cl)cc3)ccc21 (stereo unspecified),,> 100,,> 100,,> 100,,> 100,,> 100,,> 100,,,,> 100,> 100,> 100,,
Nc1nc(SCCC/C=C/I)nc2c1ncn2C1OC(CO)C(O)C1O (stereo unspecified),,> 202,,> 202,,> 202,,> 202,,> 202,,> 202,,,,,> 202,> 202,,
COc1cc2c3c(n(CCCNCCNCCCN)c(=O)c2cc1OC)-c1cc2c(cc1C3=O)OCO2,1.08,3.75,2.39,6.45,2.03,10.7,2.73,10.9,,,1.99,11.4,2.72,17.3,13,93.1,7.06,,2.06,
COC(=O)C1=Cc2c(cc(OC)c(OC)c2OC)[C@H](c2ccc(OC)c(OC)c2OC)C1C(=O)OC (stereo partly specified),,> 100,,> 100,,> 100,,> 100,,> 100,,> 100,,,,> 100,> 100,> 100,,
Clc1cc(Cl)cc(Nc2nc3ccccc3nc2-c2cccs2)c1,,> 100,,27,,> 100,,> 100,,> 100,,> 100,,,,39.9,> 100,> 100,,
CN(CCN(C)C(=O)CCOS(C)(=O)=O)C(=O)CCOS(C)(=O)=O,,> 100,,> 100,,> 100,,> 100,,> 100,,> 100,,,,,> 100,> 100,,
CN(C)CCNC(=O)c1nc([N+](=O)[O-])cn1C,,> 100,,> 100,,> 100,,> 100,,> 100,,> 100,,> 100,,,,> 100,,
CCCCCCCCCCCCCCCCn1cc[n+](Cc2ccccc2)c1C,,,,,,,0.361,1.8,0.104,0.444,0.548,1.77,0.207,0.951,0.0122,0.341,,,,
CCC[CH2][Sn]1([CH2]CCC)[O]C(=O)CN=Cc2ccccc2[O]1,0.205,0.527,0.346,1.39,0.175,0.434,0.136,0.333,0.187,0.607,0.286,0.859,,,0.144,0.306,,,,
O=C(CCCn1ccnc1[N+](=O)[O-])NCCn1ccnc1[N+](=O)[O-],,> 100,,> 100,,> 100,,> 100,,> 100,,> 100,,> 100,,,> 100,> 100,,
O=C(O)CCCNS(=O)(=O)c1ccc2ccccc2c1,,> 100,,> 100,,> 100,,> 100,,> 100,,> 100,,,,> 100,> 100,,,
CCOC(=O)[C@H]1Nc2ccc(Cl)cc2[C@H]2c3ccccc3O[C@H]21,,> 100,,> 100,,> 100,,,,> 100,,> 100,,,,> 100,> 100,> 100,,
Cc1cc2c(cc1Br)C1(C)CCC(C)C1(C)O2 (stereo unspecified),,35.4,,> 100,,> 100,,67.4,,33.2,,> 100,,,,32.1,50,30.5,,
CCOC(=O)C(=O)Nc1ccc(Cl)c(C(F)(F)F)c1,,> 100,,> 100,,> 100,,> 100,,> 100,,> 100,,,,> 100,> 100,> 100,,
CCCCCCN1CCN(Cc2ccc(N(CC)CC)cc2)C(=O)C1=O,7.95,> 100,5.42,> 100,3.07,> 100,4.05,62.5,3.63,19.2,6.21,> 100,5.69,> 100,,,27.8,13.4,5.84,1.03
